Values quoted from earlier work as cited in publication PMC3222680 (PLoS ONE, 2011).

System: α1 β GlyRs with cysteine mutations in the M2–M3 loop of the β subunit
Conditions: cysteine-substituted α1 β GlyRs (β subunit M2–M3 loop) ref 22; cited from earlier work

C[N+](C)(C)CCSS(C)(=O)=O [MTSET, 2-trimethylammoniumethylmethane thiosulfonate]
channel function in response to MTSET treatment: did not change
